Experimental findings from patent US10106524B2, “2,3,4,5-tetrahydropyridin-6-amine and 3,4-dihydro-2H-pyrrol-5-amine compound inhibitors of beta-secretase” (Janssen Pharmaceutica NV, priority 2015, dated 2018) are described below.

In data set [1] the target is T1, recombinant BACE1 protein (Homo sapiens, UniProt P56817).
T1 construct: recombinant BACE1 protein in a final concentration of 1 μg/ml
The data set is described as follows: BACE1 biochemical FRET based assay - Method 1. As to conditions: BACE1 1 μg/ml, 120 minutes, 10 μm substrate, pH 5.0; read-out: Biochemical FRET based assay - Method 1 pIC50 (converted). The source says: BACE1 Biochemical FRET Based Assay
This assay is a Fluorescence Resonance Energy Transfer Assay (FRET) based assay. The substrate for this assay is an APP derived 13 amino acids peptide that contains the ‘Swedish’ Lys-Met/Asn-Leu mutation of the amyloid precursor protein (APP) beta-secretase cleavage site. This substrate also contains two fluorophores: (7-methoxycoumarin-4-yl) acetic acid (Mca) is a fluorescent donor with excitation wavelength at 320 nm and emission at 405 nm and 2,4-Dinitrophenyl (Dnp) is a proprietary quencher acceptor. […] Upon cleavage by BACE1, the fluorophore Mca is separated from the quenching group Dnp, restoring the full fluorescence yield of the donor. The increase in fluorescence is linearly related to the rate of proteolysis.
Briefly in a 384-well format recombinant BACE1 protein in a final concentration of 1 μg/ml is incubated for 120 minutes at room temperature with 10 μm substrate in incubation buffer (40 mM Citrate buffer pH 5.0, 0.04% PEG, 4% DMSO) in the absence or presence of compound. Next the amount of proteolysis is directly measured by fluorescence measurement at T=0 and T=120 (excitation at 320 nm and emission at 405 nm). Results are expressed in RFU (Relative Fluorescence Units), as difference between T120 and T0.
(§1) A best-fit curve is fitted by a minimum sum of squares method to the plot of % Controlmin versus compound concentration. From this an IC50 value (inhibitory concentration causing 50% inhibition of activity) can be obtained.

In data set [2] the target is T1, recombinant BACE1 protein. The data set can be described thus: BACE1 biochemical FRET based assay - Method 2. To be noted: BACE1 0.04 μg/ml, 450 minutes, 20 μM substrate, pH 5.0; read-out: Biochemical FRET based assay- Method 2 pIC50 (converted).
For data set [3], the system named is Abeta 1-42 produced and secreted by SKNBE2 cells expressing hAPP695. The data set is described as follows: Cellular αLisa assay in SKNBE2 cells - Abeta 42. Format: cell-based, human. To be noted: Homo sapiens, incubated for 18 hours, read-out: Cellular αLisa assay in SKNBE2 cells Abeta 42 pIC50 (converted).
The target in data set [4] is T2, recombinant BACE2 protein (Homo sapiens, UniProt Q9Y5Z0).
T2 construct: recombinant BACE2 protein in a final concentration of 0.4 μg/nil
T2 sequence (Q9Y5Z0 63-518): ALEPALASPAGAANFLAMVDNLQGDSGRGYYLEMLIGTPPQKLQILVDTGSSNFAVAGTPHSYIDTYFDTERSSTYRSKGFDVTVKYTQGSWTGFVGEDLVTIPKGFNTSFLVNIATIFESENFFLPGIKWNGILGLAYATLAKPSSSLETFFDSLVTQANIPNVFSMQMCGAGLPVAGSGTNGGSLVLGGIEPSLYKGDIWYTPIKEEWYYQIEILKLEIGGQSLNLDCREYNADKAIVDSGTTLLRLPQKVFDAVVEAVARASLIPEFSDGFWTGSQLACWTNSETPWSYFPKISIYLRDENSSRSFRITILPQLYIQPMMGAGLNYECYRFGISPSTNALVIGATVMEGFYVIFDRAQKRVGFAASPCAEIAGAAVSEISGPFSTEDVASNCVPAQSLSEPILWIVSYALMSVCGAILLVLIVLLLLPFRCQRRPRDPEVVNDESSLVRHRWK
The data set can be described thus: BACE2 biochemical FRET based assay. To be noted: BACE2 0.4 μg/nil, 450 minutes, 10 μM substrate, pH 5.0; read-out: Biochemical FRET based assay pIC50 (BACE2) (converted).

In data set [5] the test system is Abeta total produced and secreted by SKNBE2 cells expressing hAPP695. The data set can be described thus: Cellular αLisa assay in SKNBE2 cells - Abeta total. The data set is classed as cell-based. As to conditions: Homo sapiens, incubated for 18 hours, read-out: Cellular αLisa assay in SKNBE2 cells Abeta total pIC50 (converted). The procedure:
Cellular αLisa Assay in SKNBE2 Cells
In two αLisa assays the levels of Abeta total and Abeta 1-42 produced and secreted into the medium of human neuroblastoma SKNBE2 cells are quantified. The assay is based on the human neuroblastoma SKNBE2 expressing the wild type Amyloid Precursor Protein (hAPP695). The compounds are diluted and added to these cells, incubated for 18 hours and then measurements of Abeta 1-42 and Abeta total are taken. Abeta total and Abeta 1-42 are measured by sandwich αLisa. αLisa is a sandwich assay using biotinylated antibody AbN/25 attached to streptavidin coated beads and antibody Ab4G8 or cAb42/26 conjugated acceptor beads for the detection of Abeta total and Abeta 1-42 respectively. In the presence of Abeta total or Abeta 1-42, the beads come into close proximity. The excitation of the donor beads provokes the release of singlet oxygen molecules that trigger a cascade of energy transfer in the acceptor beads, resulting in light emission. Light emission is measured after 1 hour incubation (excitation at […] and emission at 615 nm).
as §1

Molecules are shown by their SMILES.

T1 sequence (P56817 46-501): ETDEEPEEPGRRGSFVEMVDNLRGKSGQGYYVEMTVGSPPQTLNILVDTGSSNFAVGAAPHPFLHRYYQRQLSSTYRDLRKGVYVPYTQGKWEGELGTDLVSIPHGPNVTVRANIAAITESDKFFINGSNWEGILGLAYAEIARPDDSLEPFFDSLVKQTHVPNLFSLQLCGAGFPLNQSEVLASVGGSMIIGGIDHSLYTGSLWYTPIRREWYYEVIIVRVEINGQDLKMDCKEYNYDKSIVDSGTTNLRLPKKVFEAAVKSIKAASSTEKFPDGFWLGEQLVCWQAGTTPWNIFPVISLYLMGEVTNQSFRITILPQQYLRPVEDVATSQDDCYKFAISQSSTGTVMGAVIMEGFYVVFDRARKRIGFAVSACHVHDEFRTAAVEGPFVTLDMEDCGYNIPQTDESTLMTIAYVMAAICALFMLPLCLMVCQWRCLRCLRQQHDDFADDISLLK

As usually defined, the melting point is the temperature, or range, at which the solid turns liquid. For `COc1cnc(C(=O)Nc2cccc([C@]3(C)C[C@H](C(F)(F)F)CC(N)=N3)c2)cn1` [Compound 4, N-{3-[(2S,4S)-6-amino-2-methyl-4-(trifluoromethyl)-2,3,4,5-tetrahydropyridin-2-yl]phenyl}-5-methoxypyrazine-2-carboxamide], the melting point worked out at 138.66 °C. In data set [1], the IC50 was > 30.2 µM. In addition, the IC50 in data set [2] was > 10 µM. The IC50 in data set [3] is 2.34 µM. The IC50 in data set [4] is > 10 µM. Further, the IC50 in data set [5] is 1.95 µM.

Regarding `C[C@@]1(c2cc(NC(=O)c3ccc(C#N)cn3)ccc2F)C[C@@H](C(F)(F)F)CC(N)=N1` [Compound 10], the melting point came to 205.8 °C. The IC50 in data set [1] is 0.0363 µM. Also, the IC50 in data set [2] is 0.00363 µM. Moreover, the IC50 in data set [3] is 0.00427 µM. Also, the IC50 in data set [4] is 0.0257 µM. The IC50 in data set [5] was 0.0038 µM.

Take `COc1cnc(C(=O)Nc2cccc([C@]3(C)C[C@@H](C(F)(F)F)CC(N)=N3)c2)cn1` [Compound 3, N-{3-[(2S,4R)-6-amino-2-methyl-4-(trifluoromethyl)-2,3,4,5-tetrahydropyridin-2-yl]phenyl}-5-methoxypyrazine-2-carboxamide]: the melting point turned out to be 171.93 °C. For the same compound, the IC50 in data set [1] is 0.0316 µM. For the same compound, in data set [2], the IC50 was 0.0251 µM. Besides, in data set [3], the IC50 was 0.00955 µM. In addition, in data set [4], the IC50 was 0.339 µM. For the same compound, the IC50 in data set [5] was 0.00871 µM.

Compound `C[C@@]1(c2cc(NC(=O)c3ccc(F)cn3)ccc2F)C[C@@H](C(F)(F)F)CC(N)=N1` [Compound 12] yielded a melting point of 199.22 °C. The IC50 in data set [1] is 0.0513 µM. In data set [2], the IC50 was 0.0155 µM. Further, the IC50 in data set [3] was 0.00759 µM. Further, the IC50 in data set [4] is 0.0107 µM. Moreover, the IC50 in data set [5] is 0.00776 µM.

For the compound `C[C@@]1(c2cc(NC(=O)c3ccn(C(F)F)n3)ccc2F)C[C@@H](C(F)(F)F)CC(N)=N1` [Compound 13], the melting point was 139.83 °C. The IC50 in data set [1] is 0.0389 µM. Moreover, the IC50 in data set [2] is 0.00617 µM. For the same compound, the IC50 in data set [3] was 0.0224 µM. Further, in data set [4], the IC50 is 0.00309 µM. Besides, in data set [5], the IC50 was 0.024 µM.
